Measured values taken from the OligoGym collection.
HELM strings list units from the 5' end as sugar, base in round brackets, then linkage (d deoxyribose, r ribose, m 2'-O-methyl, p phosphodiester). Strings are as the collection lists them; they lack the last nucleoside at the 3' end of the tested compound. [moe] = 2'-O-(2-methoxyethyl) (MOE); [sp] = phosphorothioate linkage; [m5C] = 5-methylcytosine

Target: LRRK2
Assay: mouse, dose not given
Settings: ASO

In the case of “RNA1{[moe](T)[sp].[moe](G)p.[moe]([m5C])[sp].[moe](T)[sp].[moe](T)[sp].d(T)[sp].d([m5C])[sp].d(A)[sp].d(T)[sp].d(A)[sp].d(G)[sp].d([m5C])[sp].d(T)[sp].d(T)[sp].d([m5C])[sp].[moe]([m5C])[sp].[moe](A)p.[moe]([m5C])[sp].[moe]([m5C])}$$$$ (last 3' nucleoside missing)”, the 3 h FOB score is reported as 4 score 0-7.
“RNA1{[moe](A)[sp].[moe](T)p.[moe](T)[sp].[moe](G)[sp].[moe]([m5C])[sp].d([m5C])[sp].d(A)[sp].d([m5C])[sp].d(T)[sp].d([m5C])[sp].d(A)[sp].d(T)[sp].d(G)[sp].d(A)[sp].d(G)[sp].[moe](G)[sp].[moe](A)p.[moe]([m5C])[sp].[moe](T)}$$$$ (last 3' nucleoside missing)” showed a 3 h FOB score of 4 score 0-7.
For “RNA1{[moe](G)[sp].[moe]([m5C])p.[moe](A)[sp].[moe](A)[sp].[moe](G)[sp].d(T)[sp].d([m5C])[sp].d([m5C])[sp].d(A)[sp].d(A)[sp].d(A)[sp].d(T)[sp].d(G)[sp].d(T)[sp].d(G)[sp].[moe](T)[sp].[moe]([m5C])p.[moe](A)[sp].[moe](A)}$$$$ (last 3' nucleoside missing)”, the 3 h FOB score was 6 score 0-7.
In the case of “RNA1{[moe](A)[sp].[moe](T)p.[moe]([m5C])p.[moe]([m5C])p.[moe](A)[sp].d([m5C])[sp].d(A)[sp].d(T)[sp].d(T)[sp].d(T)[sp].d([m5C])[sp].d(T)[sp].d(G)[sp].d(A)[sp].d(A)[sp].[moe](T)p.[moe]([m5C])p.[moe]([m5C])[sp].[moe]([m5C])}$$$$ (last 3' nucleoside missing)”, the 3 h FOB score is reported as 4 score 0-7.
For “RNA1{[moe](G)[sp].[moe](T)p.[moe](G)p.[moe](A)p.[moe](A)[sp].d(G)[sp].d([m5C])[sp].d(A)[sp].d([m5C])[sp].d(T)[sp].d(G)[sp].d(A)[sp].d(A)[sp].d(T)[sp].d([m5C])[sp].[moe]([m5C])p.[moe](A)p.[moe](T)[sp].[moe](A)}$$$$ (last 3' nucleoside missing)”, the 3 h FOB score was 6 score 0-7.
“RNA1{[moe](A)[sp].[moe](T)p.[moe]([m5C])[sp].[moe](A)[sp].[moe](T)[sp].d(T)[sp].d(G)[sp].d([m5C])[sp].d(T)[sp].d(G)[sp].d([m5C])[sp].d(T)[sp].d([m5C])[sp].d(A)[sp].d(T)[sp].[moe](A)[sp].[moe](T)p.[moe]([m5C])[sp].[moe](T)}$$$$ (last 3' nucleoside missing)” was tested, and the 3 h FOB score was 6 score 0-7.
“RNA1{[moe](G)[sp].[moe](T)p.[moe](G)p.[moe]([m5C])p.[moe](A)[sp].d(A)[sp].d(G)[sp].d(T)[sp].d([m5C])[sp].d([m5C])[sp].d(A)[sp].d(A)[sp].d(A)[sp].d(T)[sp].d(G)[sp].[moe](T)p.[moe](G)p.[moe](T)[sp].[moe]([m5C])}$$$$ (last 3' nucleoside missing)” gave a 3 h FOB score of 2 score 0-7.
Work on “RNA1{[moe](A)[sp].[moe]([m5C])p.[moe](G)p.[moe]([m5C])p.[moe](A)[sp].d([m5C])[sp].d(T)[sp].d(T)[sp].d(A)[sp].d(A)[sp].d([m5C])[sp].d(A)[sp].d(A)[sp].d(T)[sp].d(A)[sp].[moe](T)p.[moe]([m5C])p.[moe](A)[sp].[moe](T)}$$$$ (last 3' nucleoside missing)” yielded a 3 h FOB score of 0 score 0-7.
In the case of “RNA1{[moe](G)[sp].[moe](A)p.[moe](G)[sp].[moe](T)[sp].[moe](G)[sp].d([m5C])[sp].d(A)[sp].d(T)[sp].d(G)[sp].d(G)[sp].d([m5C])[sp].d(A)[sp].d(T)[sp].d([m5C])[sp].d(A)[sp].[moe](A)[sp].[moe](A)p.[moe](A)[sp].[moe](A)}$$$$ (last 3' nucleoside missing)”, the 3 h FOB score is reported as 2 score 0-7.
With “RNA1{[moe](T)[sp].[moe](T)p.[moe]([m5C])p.[moe](A)p.[moe](T)[sp].d(T)[sp].d([m5C])[sp].d(G)[sp].d(G)[sp].d(T)[sp].d(T)[sp].d(A)[sp].d(T)[sp].d(A)[sp].d(A)[sp].[moe](G)p.[moe](G)p.[moe]([m5C])[sp].[moe](A)}$$$$ (last 3' nucleoside missing)” the 3 h FOB score was 4 score 0-7.
“RNA1{[moe](T)[sp].[moe](G)p.[moe]([m5C])p.[moe](T)p.[moe](T)[sp].d(T)[sp].d([m5C])[sp].d(A)[sp].d(T)[sp].d(A)[sp].d(G)[sp].d([m5C])[sp].d(T)[sp].d(T)[sp].d([m5C])[sp].[moe]([m5C])p.[moe](A)p.[moe]([m5C])[sp].[moe]([m5C])}$$$$ (last 3' nucleoside missing)” showed a 3 h FOB score of 0 score 0-7.
With “RNA1{[moe](A)[sp].[moe](T)p.[moe](T)p.[moe](G)p.[moe]([m5C])[sp].d(A)[sp].d(A)[sp].d(T)[sp].d(G)[sp].d(T)[sp].d(T)[sp].d(T)[sp].d([m5C])[sp].d(A)[sp].d(A)[sp].[moe](T)p.[moe](A)p.[moe](T)[sp].[moe](G)}$$$$ (last 3' nucleoside missing)” the 3 h FOB score was 1 score 0-7.
Work on “RNA1{[moe](T)[sp].[moe](T)p.[moe](T)[sp].[moe]([m5C])[sp].[moe](A)[sp].d(T)[sp].d(T)[sp].d([m5C])[sp].d(G)[sp].d(G)[sp].d(T)[sp].d(T)[sp].d(A)[sp].d(T)[sp].d(A)[sp].[moe](A)[sp].[moe](G)p.[moe](G)[sp].[moe]([m5C])}$$$$ (last 3' nucleoside missing)” yielded a 3 h FOB score of 7 score 0-7.
“RNA1{[moe](G)[sp].[moe](T)p.[moe](T)[sp].[moe](A)[sp].[moe](A)[sp].d([m5C])[sp].d(G)[sp].d([m5C])[sp].d(A)[sp].d([m5C])[sp].d(T)[sp].d(T)[sp].d(A)[sp].d(A)[sp].d([m5C])[sp].[moe](A)[sp].[moe](A)p.[moe](T)[sp].[moe](A)}$$$$ (last 3' nucleoside missing)” was tested, and the 3 h FOB score was 2 score 0-7.
Substance “RNA1{[moe](G)[sp].[moe]([m5C])p.[moe](T)p.[moe](G)p.[moe]([m5C])[sp].d(T)[sp].d([m5C])[sp].d(A)[sp].d(T)[sp].d(A)[sp].d(T)[sp].d([m5C])[sp].d(T)[sp].d(A)[sp].d(A)[sp].[moe](A)p.[moe](G)p.[moe](A)[sp].[moe]([m5C])}$$$$ (last 3' nucleoside missing)” has a 3 h FOB score of 0 score 0-7.
“RNA1{[moe]([m5C])[sp].[moe](T)p.[moe](G)[sp].[moe](T)[sp].[moe](T)[sp].d(A)[sp].d(T)[sp].d(T)[sp].d([m5C])[sp].d(T)[sp].d(G)[sp].d(A)[sp].d(T)[sp].d([m5C])[sp].d(A)[sp].[moe]([m5C])[sp].[moe](A)p.[moe]([m5C])[sp].[moe](G)}$$$$ (last 3' nucleoside missing)” gave a 3 h FOB score of 5 score 0-7.
Substance “RNA1{[moe](A)[sp].[moe]([m5C])p.[moe](G)[sp].[moe]([m5C])[sp].[moe](A)[sp].d([m5C])[sp].d(T)[sp].d(T)[sp].d(A)[sp].d(A)[sp].d([m5C])[sp].d(A)[sp].d(A)[sp].d(T)[sp].d(A)[sp].[moe](T)[sp].[moe]([m5C])p.[moe](A)[sp].[moe](T)}$$$$ (last 3' nucleoside missing)” has a 3 h FOB score of 1 score 0-7.
Substance “RNA1{[moe](T)[sp].[moe]([m5C])p.[moe](A)[sp].[moe](T)[sp].[moe](T)[sp].d([m5C])[sp].d(G)[sp].d(G)[sp].d(T)[sp].d(T)[sp].d(A)[sp].d(T)[sp].d(A)[sp].d(A)[sp].d(G)[sp].[moe](G)[sp].[moe]([m5C])p.[moe](A)[sp].[moe]([m5C])}$$$$ (last 3' nucleoside missing)” has a 3 h FOB score of 7 score 0-7.
